Assay results from BindingDB's records for doi:10.1016/S0960-894X(97)00319-3 (1997).

Test: Inhibition of [125I]ET1 binding to porcine kidney inner medulla membranes

Row | SMILES | IC50
1 | CCOc1ccc2c(c1)c(-c1ccc(OC)cc1)c(C(=O)O)c(=O)n2Cc1cc(OC)ccc1OC [1-(2,5-Dimethoxy-benzyl)-6-ethoxy-4-(4-methoxy-phenyl)-2-oxo-1,2-dihydro-quinoline-3-carboxylic acid] | 200 nM
2 | CCOc1ccc2c(c1)c(-c1ccc(OC)cc1OC)c(C(=O)O)c(=O)n2Cc1ccccc1OC [4-(2,4-Dimethoxy-phenyl)-6-ethoxy-1-(2-methoxy-benzyl)-2-oxo-1,2-dihydro-quinoline-3-carboxylic acid] | 540 nM
3 | COc1ccc(Cn2c(=O)c(C(=O)O)c(-c3ccc4c(c3)OCO4)c3ccccc32)cc1 [4-Benzo[1,3]dioxol-5-yl-1-(4-methoxy-benzyl)-2-oxo-1,2-dihydro-quinoline-3-carboxylic acid] | 6800 nM
4 | COc1ccccc1Cn1c(=O)c(C(=O)O)c(-c2ccc3c(c2)OCO3)c2c(OC)c(OC)ccc21 [4-Benzo[1,3]dioxol-5-yl-5,6-dimethoxy-1-(2-methoxy-benzyl)-2-oxo-1,2-dihydro-quinoline-3-carboxylic acid] | 2600 nM
5 | CCOc1ccc2c(c1)c(-c1ccc(OC)cc1)c(C(=O)O)c(=O)n2Cc1ccccc1OC [6-Ethoxy-1-(2-methoxy-benzyl)-4-(4-methoxy-phenyl)-2-oxo-1,2-dihydro-quinoline-3-carboxylic acid] | 500 nM

More lines, now with the values ahead:

Row | IC50 | SMILES
6 | 940 nM | COc1ccccc1Cn1c(=O)c(C(=O)O)c(-c2ccc3c(c2)OCO3)c2ccccc21 [4-Benzo[1,3]dioxol-5-yl-1-(2-methoxy-benzyl)-2-oxo-1,2-dihydro-quinoline-3-carboxylic acid]
7 | > 10000 nM | O=C(O)c1c(-c2ccc3c(c2)OCO3)c2ccccc2n(Cc2ccccc2)c1=O [4-Benzo[1,3]dioxol-5-yl-1-benzyl-2-oxo-1,2-dihydro-quinoline-3-carboxylic acid]
8 | 450 nM | CCOc1ccc2c(c1)c(-c1ccc3c(c1)OCO3)c(C(=O)O)c(=O)n2Cc1ccccc1OC [4-Benzo[1,3]dioxol-5-yl-6-ethoxy-1-(2-methoxy-benzyl)-2-oxo-1,2-dihydro-quinoline-3-carboxylic acid]
9 | 1300 nM | CCc1ccc2c(c1)c(-c1ccc3c(c1)OCO3)c(C(=O)O)c(=O)n2Cc1ccccc1OC [4-Benzo[1,3]dioxol-5-yl-6-ethyl-1-(2-methoxy-benzyl)-2-oxo-1,2-dihydro-quinoline-3-carboxylic acid]
